Like-named read-outs stand apart in the source and are kept apart here.
Tests used:
[1] = system: NCI-H1975 (ATCC CRL-5908) cell line comprising an EGFR T790M L858R double mutation; assay: EGFR-SOS cellular inhibition assay (CellTiter-Glo cell proliferation); type: cell-based; settings: Homo sapiens, 120 h; NCI-H1975 cell proliferation, approximately 5 days; read-out: H1975 IC50
Description: A CellTiter-Glo (CTG) luminescent based assay (Promega) is used to assess growth of the cells, as a measurement of the ability of the compounds herein to inhibit EGFR signaling in the cells. […] The day after plating, cells are treated with a dilution series (e.g., a 9 point 3-fold dilution series) of the compounds herein (e.g., approximately 125 μL final volume per well).

SOS1 = SOS1 (Homo sapiens (Human), UniProt Q07889); assay: Ras-SOS interaction assay (HTRF), K-Ras G13D utilized; type: binding; settings: K-Ras G13D
SOS1, sequence (Q07889 564-1049): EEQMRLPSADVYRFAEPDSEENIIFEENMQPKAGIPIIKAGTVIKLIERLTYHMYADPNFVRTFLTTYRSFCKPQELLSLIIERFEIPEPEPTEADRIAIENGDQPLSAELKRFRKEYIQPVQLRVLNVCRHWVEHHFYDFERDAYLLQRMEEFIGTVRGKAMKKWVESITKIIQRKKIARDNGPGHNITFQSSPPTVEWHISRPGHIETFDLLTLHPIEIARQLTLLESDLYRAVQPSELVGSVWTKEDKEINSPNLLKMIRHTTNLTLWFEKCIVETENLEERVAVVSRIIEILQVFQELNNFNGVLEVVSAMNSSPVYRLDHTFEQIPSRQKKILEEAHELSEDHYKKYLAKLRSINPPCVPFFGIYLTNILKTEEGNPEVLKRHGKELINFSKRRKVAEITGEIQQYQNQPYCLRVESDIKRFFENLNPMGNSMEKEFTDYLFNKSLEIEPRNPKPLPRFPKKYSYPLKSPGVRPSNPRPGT

SMILES	IC50 [1] [nM]	IC50 (SOS1; read-out: SOS1 IC50) [nM]	IC50 (SOS1; read-out: IC50 value against SOS1) [nM]
Cc1nc2c3cc(C4(C#N)CC4)c(=O)n(c3n1)CCCCC/C=C\COCC(F)(F)c1cccc(c1F)[C@@H](C)N2 [Compound 109, 1-((3R,Z)-4^2,5,5-trifluoro-1^2,3-dimethyl-1^7-oxo-1^7,1^8-dihydro-7-oxa-2-aza-1(4,8)-pyrido[2,3-d]pyrimidina-4(1,3)-benzenacyclopentadecaphan-9-en-1^6-yl)cyclopropane-1-carbonitrile]	< 1000	< 100	
C[C@H]1Nc2ncnc3c2cc(C2CCS(=O)(=O)CC2)c(=O)n3CCCCCC(C)(O)CN2CCC(CC2)C(F)(F)c2cccc1c2 (stereo partly drawn) [Compound 110, (4R)-6^6-(1,1-dioxidotetrahydro-2H-thiopyran-4-yl)-2,2-difluoro-12-hydroxy-4,12-dimethyl-6^7,6^8-dihydro-5-aza-6(4,8)-pyrido[2,3-d]pyrimidina-1(4,1)-piperidina-3(1,3)-benzenacyclotridecaphan-6^7-one]	< 1000	< 100	
C[C@H]1Nc2ncnc3c2cc(C2CCS(=O)(=O)CC2)c(=O)n3CCCCCCCN2C3CCC2CC(C3)C(F)(F)c2cccc1c2F [Compound 113, (11S,15R,4R)-6^6-(1,1-dioxidotetrahydro-2H-thiopyran-4-yl)-32,2,2-trifluoro-4-methyl-6^7,6^8-dihydro-1^8,5-diaza-6(4,8)-pyrido[2,3-d]pyrimidina-1(3,8)-bicyclo[3.2.1]octana-3(1,3)-benzenacyclotridecaphan-6^7-one]	< 1000	< 100	
C[C@H]1Nc2ncnc3c2cc(C2CCS(=O)(=O)CC2)c(=O)n3CCCCCC(C#N)CN2CCC(CC2)C(F)(F)c2cccc1c2 (stereo partly drawn) [Compound 114, (4R)-6^6-(1,1-dioxidotetrahydro-2H-thiopyran-4-yl)-2,2-difluoro-4-methyl-6^7-oxo-6^7,6^8-dihydro-5-aza-6(4,8)-pyrido[2,3-d]pyrimidina-1(4,1)-piperidina-3(1,3)-benzenacyclotridecaphane-12-carbonitrile]	< 1000	< 100	
C[C@H]1Nc2ncnc3c2cc(C2(C#N)CCS(=O)(=O)CC2)c(=O)n3CCCCCCCN2CCC(CC2)C(F)(F)c2cccc1c2 [Compound 116, 4-((4R)-2,2-difluoro-4-methyl-6^7-oxo-6^7,6^8-dihydro-5-aza-6(4,8)-pyrido[2,3-d]pyrimidina-1(4,1)-piperidina-3(1,3)-benzenacyclotridecaphane-6^6-yl)tetrahydro-2H-thiopyran-4-carbonitrile 1,1-dioxide]	< 1000	< 100	
C[C@H]1Nc2ncnc3c2cc(C2CCS(=O)(=O)CC2)c(=O)n3CCCCNC(=O)CN2CCC(CC2)C(F)(F)c2cccc1c2 [Compound 118, (4R)-6^6-(1,1-dioxidotetrahydro-2H-thiopyran-4-yl)-2,2-difluoro-4-methyl-6^7,6^8-dihydro-5,11-diaza-6(4,8)-pyrido[2,3-d]pyrimidina-1(4,1)-piperidina-3(1,3)-benzenacyclotridecaphane-6^7,12-dione]	< 1000	< 100	
C[C@H]1Nc2ncnc3c2cc(N2CCS(=O)(=O)CC2)c(=O)n3CCCCCN2CCC(CC2)CCC(F)(F)c2cccc1c2F [Compound 119, (3R)-1^6-(1,1-dioxidothiomorpholino)-4^2,5,5-trifluoro-3-methyl-1^7,1^8-dihydro-2-aza-1(4,8)-pyrido[2,3-d]pyrimidina-8(4,1)-piperidina-4(1,3)-benzenacyclotridecaphan-1^7-one]	< 1000	< 100	
C[C@H]1Nc2ncnc3nc(c(C4(C#N)CC4)cc23)OCCCCCCN2CCC(CC2)C(F)(F)c2cccc1c2 [Compound 121, (R)-1-(2,2-difluoro-4-methyl-7-oxa-5-aza-6(4,7)-pyrido[2,3-d]pyrimidina-1(4,1)-piperidina-3(1,3)-benzenacyclotridecaphane-6^6-yl)cyclopropane-1-carbonitrile]	< 1000	< 100	
CC(C)N1CCC(c2cc3c4ncnc3n(c2=O)CCOCCCCN2CCC(CC2)CC(F)(F)c2cccc(c2)[C@@H](C)N4)CC1 [Compound 122, (3R)-5,5-difluoro-1^6-(1-isopropylpiperidin-4-yl)-3-methyl-1^7,1^8-dihydro-12-oxa-2-aza-1(4,8)-pyrido[2,3-d]pyrimidina-7(4,1)-piperidina-4(1,3)-benzenacyclotetradecaphan-1^7-one]	< 1000	< 100	
CC(C)N1CCN(c2cc3c4ncnc3n(c2=O)CCCCCCCN2CCC(CC2)C(F)(F)c2cccc(c2)[C@@H](C)N4)CC1 [Compound 123, (4R)-2,2-difluoro-6^6-(4-isopropylpiperazin-1-yl)-4-methyl-6^7,6^8-dihydro-5-aza-6(4,8)-pyrido[2,3-d]pyrimidina-1(4,1)-piperidina-3(1,3)-benzenacyclotridecaphan-6^7-one]	< 1000	< 100	
C[C@H]1Nc2ncnc3c2cc(C2(C#N)CC2)c(=O)n3CCCCNC(=O)CN2CCC(CC2)C(F)(F)c2cccc1c2 [Compound 124, 1-((4R)-2,2-difluoro-4-methyl-6^7,12-dioxo-6^7,6^8-dihydro-5,11-diaza-6(4,8)-pyrido[2,3-d]pyrimidina-1(4,1)-piperidina-3(1,3)-benzenacyclotridecaphane-6^6-yl)cyclopropane-1-carbonitrile]	< 1000	< 100	
C[C@H]1Nc2ncnc3c2cc(C2CCS(=O)(=O)CC2)c(=O)n3CCCCCCCN2CCC(CC2)C(F)(F)c2cccc1c2F [Compound 125, (4R)-6^6-(1,1-dioxidotetrahydro-2H-thiopyran-4-yl)-3^2,2,2-trifluoro-4-methyl-6^7,6^8-dihydro-5-aza-6(4,8)-pyrido[2,3-d]pyrimidina-1(4,1)-piperidina-3(1,3)-benzenacyclotridecaphan-6^7-one]	< 1000	< 100	

Next, values leading:

IC50 [1] [nM]	IC50 (SOS1; read-out: SOS1 IC50) [nM]	IC50 (SOS1; read-out: IC50 value against SOS1) [nM]	SMILES
< 1000	< 100		C[C@H]1Nc2ncnc3c2cc(C2(C#N)CC2)c(=O)n3CCCCn2cc(nn2)CN2CCC(CC2)C(F)(F)c2cccc1c2F [Compound 126, 1-((6R,Z)-5^2,4,4-trifluoro-6-methyl-8^7-oxo-8^7,8^8-dihydro-1^1H-7-aza-8(4,8)-pyrido[2,3-d]pyrimidina-3(1,4)-piperidina-1(4,1)-triazola-5(1,3)-benzenacyclododecaphane-8^6-yl)cyclopropane-1-carbonitrile]
< 1000	< 100		C[C@H]1Nc2ncnc3c2cc(C2(C#N)CCS(=O)(=O)CC2)c(=O)n3CCCOCCCCN2CCC(CC2)C(F)(F)c2cccc1c2 [Compound 127, 4-((4R)-2,2-difluoro-4-methyl-6^7-oxo-6^7,6^8-dihydro-10-oxa-5-aza-6(4,8)-pyrido[2,3-d]pyrimidina-1(4,1)-piperidina-3(1,3)-benzenacyclotetradecaphane-6^6-yl)tetrahydro-2H-thiopyran-4-carbonitrile 1,1-dioxide]
< 1000	< 100		C[C@H]1Nc2ncnc3c2cc(C2(C#N)CC2)c(=O)n3CC(=O)N(C)CCCCN2CCC(CC2)C(F)(F)c2cccc1c2F [Compound 128, 1-((4R)-3^2,2,2-trifluoro-4,9-dimethyl-6^7,8-dioxo-6^7, 6^8-dihydro-5,9-diaza-6(4,8)-pyrido[2,3-d]pyrimidina-1(4,1)-piperidina-3(1,3)-benzenacyclotridecaphane-6^6-yl)cyclopropane-1-carbonitrile]
1000 to 10000	100 to 5000		Cc1nc2c3cc(C4(C#N)CC4)c(=O)n(c3n1)CCCCCCOCC(F)(F)c1cccc(c1F)[C@@H](C)N2 [Compound 130, 1-((3R)-4^2,5,5-trifluoro-1^2,3-dimethyl-1^7-oxo-1^7,1^8-dihydro-7-oxa-2-aza-1(4,8)-pyrido[2,3-d]pyrimidina-4(1,3)-benzenacyclotridecaphane-1^6-yl)cyclopropane-1-carbonitrile]
< 1000	< 100		C[C@H]1Nc2ncnc3c2cc(C2(C#N)CC2)c(=O)n3CCCCCC/C=C/CN2CCC(CC2)C(F)(F)c2cccc1c2 [Compound 131, 1-((4R,E)-2,2-difluoro-4-methyl-6^7-oxo-6^7,6^8-dihydro-5-aza-6(4,8)-pyrido[2,3-d]pyrimidina-1(4,1)-piperidina-3(1,3)-benzenacyclopentadecaphan-13-en-6^6-yl)cyclopropane-1-carbonitrile]
< 1000	< 100		C[C@H]1Nc2ncnc3c2cc(C2(C#N)CC2)c(=O)n3CC(=O)NCCCCN2CCC(CC2)C(F)(F)c2cccc1c2 [Compound 132, 1-((4R)-2,2-difluoro-4-methyl-6^7,8-dioxo-6^7,6^8-dihydro-5,9-diaza-6(4,8)-pyrido[2,3-d]pyrimidina-1(4,1)-piperidina-3(1,3)-benzenacyclotridecaphane-6^6-yl)cyclopropane-1-carbonitrile]
< 1000	< 100		CC(C)N1CCN(c2cc3c4ncnc3n(c2=O)CCOCCCCN2CCC(CC2)CC(F)(F)c2cccc(c2F)[C@@H](C)N4)CC1 [Compound 135, (3R)-4^2,5,5-trifluoro-1^6-(4-isopropylpiperazin-1-yl)-3-methyl-1^7,1^8-dihydro-12-oxa-2-aza-1(4,8)-pyrido[2,3-d]pyrimidina-7(4,1)-piperidina-4(1,3)-benzenacyclotetradecaphan-1^7-one]
< 1000	< 100		C[C@H]1Nc2ncnc3nc(c(C4(C#N)CC4)cc23)OCCCCCCCN2CCC(CC2)C(F)(F)c2cccc1c2 [Compound 137, (R)-1-(2,2-difluoro-4-methyl-7-oxa-5-aza-6(4,7)-pyrido[2,3-d]pyrimidina-1(4,1)-piperidina-3(1,3)-benzenacyclotetradecaphane-6^6-yl)cyclopropane-1-carbonitrile]
< 1000	< 100	< 50	COc1cc2nc(C)nc3c2cc1OCCOCCOCCOCCOCCNCc1ccc(F)cc1C1=CC=C(S1)C(C)N3 (stereo not shown) [Compound 138, 1^5-fluoro-5^7-methoxy-5^2,3-dimethyl-6,9,12,15,18-pentaoxa-4,21-diaza-5(4,6)-quinazolina-2(2,5)-thiophena-1(1,2)-benzenacyclodocosaphane]

Source: patent publication US20230339952A1, “MACROCYCLIC HETEROCYCLES AND USES THEREOF” (Kumquat Biosciences Inc., priority 2022, published 2023)
